# Results reported in publication PMC7567097, “A nanoluciferase SARS-CoV-2 for rapid neutralization testing and screening of anti-infective drugs for COVID-19” (Nature Communications, 2020).
# Like-named read-outs stand apart in the source and are kept apart here.
# How the values were obtained:
# SARS-CoV-2-Nluc = test: microbe, parasite or virus in culture; format: cell-based
# [1] = data from literature; ref [51]-[68]; cited from earlier work
# in vitro = conditions: human
# [2] = human exposures in the clinic, approved dosing schedules, ref [51]-[68], cited from earlier work; for Cmax: read-out: Exposure Cmax
# COVID-19 = tested on: COVID-19; set-up: method as in PMID 32392282; conditions: >1400 patients, compared with no treatment; cited from earlier work
# [3] = Severe acute respiratory syndrome coronavirus 2, 48 h
# [4] = Severe acute respiratory syndrome coronavirus 2, read-out: EC50 (µM) Replicate 1
# [5] = Severe acute respiratory syndrome coronavirus 2, read-out: EC50 (µM) Replicate 2
Structure (SMILES),EC50 (SARS-CoV-2-Nluc; read-out: EC50) [µM],EC50 (SARS-CoV-2-Nluc; read-out: EC50 (µM) Replicate 1) [µM],EC50 (SARS-CoV-2-Nluc; read-out: EC50 (µM) Replicate 2) [µM],CC50 (A549-hACE2 cells) [µM],Plasma protein binding [1] [%],EC50 (SARS-CoV-2-Nluc; [3]) [µM],EC50 (SARS-CoV-2-Nluc; [4]) [µM],EC50 (SARS-CoV-2-Nluc; [5]) [µM],CC50 (in vitro; CC50) [µM],CC50 (in vitro; CC50 (µM) Replicate 1) [µM],CC50 (in vitro; CC50 (µM) Replicate 2) [µM],Exposure Cmin [2] [nM],Cmax [2] [nM],Selectivity index (SI) = CC50/EC50 (SARS-CoV-2-Nluc),association of treatment with fatality rate among hospitalized patients (COVID-19)
"CC(C)[C@@]1(C(=O)N[C@H]2CC(=O)O[C@]2(O)CF)CC(c2nccc3ccccc23)=NO1 [Nivocasan (GS-9450), Nivocasan]",> 10,> 10,> 10,> 50,,,,,,,,,,,
Cc1cc(/C=C/C#N)cc(C)c1Nc1ccnc(Nc2ccc(C#N)cc2)n1 [Rilpivirine],,,,,99.7,7.8 ± 1.04,7.06,8.53,14.6 ± 1.6,13.5,15.8,300,830,,
CC(C)(C)NC(=O)[C@@H]1C[C@@H]2CCCC[C@@H]2CN1C[C@@H](O)[C@H](Cc1ccccc1)NC(=O)[C@H](CC(N)=O)NC(=O)c1ccc2ccccc2n1 [Saquinavir],,,,,,8.95 ± 0.31,8.73,9.17,35.1 ± 11.7,43.4,26.8,650,,3.9,
Fc1ccccc1-c1nc2ccn(Cc3ccc(-c4ccc(C(F)(F)F)cc4C(F)(F)F)nn3)cc-2n1 [Tegobuvir],,,,,,> 10,> 10,> 10,17.9 ± 3.1,20,15.7,,,,
"CC(C)OC(=O)[C@H](C)N[P@](=O)(CO[C@H](C)Cn1cnc2c(N)ncnc21)Oc1ccccc1 [Tenofovir alafenamide (TAF), Tenofovir alafenamide]",,,,,80,> 10,> 10,> 10,> 50,> 50,> 50,,400,,
CCC[C@@]1(CCc2ccccc2)CC(O)=C([C@H](CC)c2cccc(NS(=O)(=O)c3ccc(C(F)(F)F)cn3)c2)C(=O)O1 [Tipranavir],,,,,99.9,8.65 ± 0.16,8.53,8.76,28.4 ± 0.5,28.8,28.1,30800,130000,3.3,
CC#CC(=O)N1CC[C@@H](n2c(=O)n(-c3ccc(Oc4ccccc4)cc3)c3c(N)ncnc32)C1 [Tirabrutinib],,,,,,> 10,> 10,> 10,> 50,> 50,> 50,,,,
COC[C@H]1C[C@@H](c2ncc(-c3ccc4c(c3)COc3cc5c(ccc6nc([C@@H]7CC[C@H](C)N7C(=O)[C@@H](NC(=O)OC)C(C)C)[nH]c65)cc3-4)[nH]2)N(C(=O)[C@H](NC(=O)OC)c2ccccc2)C1 [Velpatasvir],,,,,,> 10,> 10,> 10,> 50,> 50,> 50,,,,
CC[C@H]1OC(=O)[C@H](C)[C@@H](O[C@H]2C[C@@](C)(OC)[C@@H](O)[C@H](C)O2)[C@H](C)[C@@H](O[C@@H]2O[C@H](C)C[C@H](N(C)C)[C@H]2O)[C@](C)(O)C[C@@H](C)CN(C)[C@H](C)[C@@H](O)[C@]1(C)O [azithromycin],,,,,,,,,,,,,,,not associated with significant differences in fatality rate
CCN(CCO)CCCC(C)Nc1ccnc2cc(Cl)ccc12 (centres unmarked) [hydroxychloroquine],,,,,,,,,,,,,,,not associated with significant differences in fatality rate
